From US20060276381A1, “Remedy for diabetes” (Chugai Seiyaki Kabushiki Kaisha, priority 2002, published 2006)
No end group written: not given here.

Tests used:
food-deprived mice = experiment: Feeding tests in food-deprived lean mice; assay type: in vivo; details: for Food intake: IP administration, food-deprived mice
[1] = system: gastric emptying rate in mice; experiment: Gastric emptying; assay type: in vivo; details: IP, one hour after administration
Description: Before the experiments on gastric emptying, mice were food deprived for 16 hours with free access to water. The fasted mice had free access to pre-weighed pellets for one hour and were then administered [D-Lys-3]-GHRP-6. The mice were deprived of food again for one or two hours after administration. Food intake was measured by weighing the uneaten pellets. Mice were killed by cervical dislocation two or three hours after the start of the experiments. Immediately after that, the stomach was exposed by laparotomy, quickly ligated at both the pylorus and cardia, then removed, and its dry content was weighed. Gastric emptying was calculated according to the following formula: gastric emptying (%)={1−(dry weight of food recovered from the stomach/weight of food intake)}×100. (8) Repeated Administration

ob/ob mice = experiment: Feeding test in ob/ob mice; assay type: in vivo; details: IP
ob/ob obese mice = experiment: Repeated IP administration of [D-Lys-3]-GHRP-6 in ob/ob obese mice; assay type: in vivo
GHS-R in the brain = molecular target: T1, GHS-R in the brain (Mus musculus, UniProt Q99P50); experiment: Simultaneous administration of ghrelin (IP) and [D-Lys-3]-GHRP-6 (ICV), food intake; assay type: in vivo, mice; details: free access to food
T1 construct: possibility that ghrelin would act through GHS-R in the brain; from tissue; host or cells: brain of living mice (ICV administration)
T1 sequence (Q99P50 whole entry): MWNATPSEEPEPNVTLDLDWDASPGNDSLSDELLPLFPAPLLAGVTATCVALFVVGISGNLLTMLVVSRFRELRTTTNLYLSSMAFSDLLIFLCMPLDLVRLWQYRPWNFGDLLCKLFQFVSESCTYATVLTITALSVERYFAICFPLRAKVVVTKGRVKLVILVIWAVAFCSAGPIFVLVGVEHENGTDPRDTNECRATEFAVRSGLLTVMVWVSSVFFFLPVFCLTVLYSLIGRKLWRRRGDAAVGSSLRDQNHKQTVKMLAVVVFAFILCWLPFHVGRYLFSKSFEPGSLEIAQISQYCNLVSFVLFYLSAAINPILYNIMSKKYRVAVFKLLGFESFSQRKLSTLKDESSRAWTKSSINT
Description: For ICV administration, the mice were anesthetized with sodium pentobarbital (80-85 mg/kg IP) and placed in a stereotaxic instrument (SR-6, Narishige, Tokyo, Japan) seven days before the experiments. A hole was made in each skull by using a needle inserted 0.9 mm lateral to the central suture and 0.9 mm posterior to the bregma. A 24-gauge cannula (Safelet-Cas, Nipro, Osaka, Japan) beveled at one end over a distance of 3 mm was implanted into the third cerebral ventricle for ICV administration. The cannula was fixed to the skull with dental cement and capped with silicon. A 27-gauge injection insert was attached to a microsyringe by PE-20 tubing.
Before feeding tests, mice were food deprived for 16 hours with free access to water, except during an experiment on the effect of co-administration of [D-Lys-3]-GHRP-6 and ghrelin on food intake, in which mice were given free access to food and water. Food intake was measured by subtracting uneaten food from the initially pre-measured food at 20 minutes, 1, 2 and 4 hours after administration.
In order to evaluate the possibility that ghrelin would act through GHS-R in the brain, the inventors examined the effects of simultaneous administration of ghrelin and [D-Lys-3]-GHRP-6 on food intake.

[2] = system: mice with diet-induced obesity; experiment: Feeding test in mice with diet-induced obesity; assay type: in vivo; details: IP, acute
[3] = rat des-Gln14-ghrelin; cited from earlier work
GHS-R = GHS-R (Rattus norvegicus, UniProt O08725); details: CHO cells having GHS-R expressed, chemically synthesized ghrelin; cited from earlier work
Chain of GHS-R (O08725 whole entry): as the sequence (Q99P50 whole entry) above, with S30P, S249A counted along it

pituitary gland cells = details: primary culture of pituitary gland cells; cited from earlier work
[4] = system: leptin and resistin mRNA in WAT; details: repeated IP administrations of ghrelin
Description: (§1) Repeated IP administrations were continued for five days in lean mice under a high-fat diet or a standard diet, and for six days in […] obese mice under a standard diet, respectively. The mice were given the administration at 7:00 AM and 19:00 PM. Food intake and body weight were measured daily. Serum was separated from blood obtained from the orbital sinus under ether anesthesia at the end of the experiment (eight hours after removal of food and the final IP administration). Mice were killed by cervical dislocation. Immediately after that, the epididymal fat pad mass assessed as white adipose tissue (WAT) and the gastrocnemius muscle were removed and weighed. Blood glucose was measured by the glucose oxidase method. Serum insulin and free fatty acids (FFA) were measured by enzyme immunoassay and enzymatic method (EIKEN CHEMICAL CO., LTD., Tokyo, Japan), respectively. Serum triglycerides and total cholesterol were measured by an enzymatic method (Wako Pure Chemical Industries, Ltd., Tokyo, Japan).
(§2) Subsequently, mRNA levels of leptin, adiponectin and resistin in WAT were assessed.

[5] = system: lean mice under a high-fat diet
Description: Male mice of the ddy strain (34-37 g, JAPAN SLC, Shizuoka, Japan) and obese (ob/ob) C57BL/6J mice (68-74 g, Shionogi Co., Ltd., Shiga, Japan) were used. They were individually housed in a regulated environment (22±2° C., 55±10% humidity, 12:12 hour light:dark cycle with light on at 7:00 AM). Mice received a standard diet containing 12% of total energy as fat or a high-fat diet containing 45% of total energy as fat (CLEA Japan, INC., Tokyo, Japan). Food and water were available ad lib except as otherwise indicated. All experiments were approved by Kobe University animal care committee.
[D-Lys-3]-GHRP-6, [D-Arg-1, D-Phe-5, D-Trp-7, 9, Leu-11] substance P and rat ghrelin were purchased from BACHEM CALIFORNIA INC. (Torrance, Calif., USA), NEOSYSTEM (Strasbourg, France) and Peptide Institute (Osaka, Japan), respectively. Just before administration, each drug was diluted in 4 μl of artificial cerebrospinal fluid (ACSF) for intra-third cerebroventricular (ICV) administration or in 100 μl of physiological saline for intraperitoneal (IP) administration. Results are expressed as mean value±s.e.m. Analysis of variance(ANOVA) followed by Bonferroni's t test was used to assess the differences among groups. P<0.05 was considered to be statistically significant.
as §1, §2

rats = rats in vivo; cited from earlier work
[6] = 20 nmol IP every 12 hours for 6 days
[7] = 200 nmol IP every 12 hours for 6 days
[8] = HF diet, every 12 hours for 5 days, lean mice, mean ± s.e.m.
[9] = IP 3 nmol/mouse twice daily for five days
[10] = IP 3 nmol/mouse twice daily for five days, high-fat diet

[D-Arg-1, D-Phe-5, D-Trp-7, 9, Leu-11] substance P
Food intake (food-deprived mice): significantly reduced food intake in a dose-dependent manner

[D-Lys-3]-GHRP-6
Gastric emptying rate [1]: significant decrease in the gastric emptying rate | Food intake (ob/ob mice): significantly reduced food intake in ob/ob mice | Cholesterol (ob/ob obese mice; [6]): 219.0 ± 11.24 mg/dL | Fat pad mass (epididymal) (ob/ob obese mice; [6]): 0.897 ± 0.169 g | Food intake (ob/ob obese mice; [6]): 4.527 ± 0.261 g/day | Free fatty acids (ob/ob obese mice; [6]): 2.036 ± 0.121 meq/l | Glucose (blood) (ob/ob obese mice; [6]): 217.3 ± 27.90 mg/dL | Insulin (ob/ob obese mice; [6]): 41.61 ± 10.85 ng/mL | Skeletal muscle (gastrocnemius) (ob/ob obese mice; [6]): 0.314 ± 0.009 g | Triglycerides (ob/ob obese mice; [6]): 38.57 ± 3.551 mg/dL | Cholesterol (ob/ob obese mice; [7]): 228.4 ± 21.84 mg/dL | Fat pad mass (epididymal) (ob/ob obese mice; [7]): 0.860 ± 0.086 g | Food intake (ob/ob obese mice; [7]): 4.285 ± 0.298 g/day | Free fatty acids (ob/ob obese mice; [7]): 1.646 ± 0.078 meq/l | Glucose (blood) (ob/ob obese mice; [7]): 134.9 ± 19.47 mg/dL | Insulin (ob/ob obese mice; [7]): 36.54 ± 8.695 ng/mL | Skeletal muscle (gastrocnemius) (ob/ob obese mice; [7]): 0.326 ± 0.013 g | Triglycerides (ob/ob obese mice; [7]): 41.14 ± 5.990 mg/dL | Blood glucose concentrations (ob/ob obese mice; repeated administrations): significantly lowered | Body weight gain (ob/ob obese mice; repeated administrations): significantly lowered | Muscle weight (ob/ob obese mice; repeated administrations): without reducing the muscle weight | Reduction of FFA levels compared with physiological saline-treated ob/ob mice (ob/ob obese mice; repeated administrations): 24% | Effect on feeding induced by IP administration of ghrelin (GHS-R in the brain; [D-Lys-3]-GHRP-6 ICV): abolished the stimulatory effects on the feeding | Feeding behavior (food-deprived mice; ICV administration): potent decrease in feeding behavior | Food intake (food-deprived mice): significantly reduced food intake in a dose-dependent manner | Body weight gain [2]: resulting decrease in body weight gain | Food intake [2]: decreased potently

des-Gln14-ghrelin: ghrelin analog in which Gln 14 in ghrelin is deleted (GSSFLSPEHQKAQRKESKKPPAKLQPR; ends and bridges not checked; UniProt Q9QYH7 24-51, looked up, variant Q14*)
Growth hormone releasing activity relative to ghrelin [3]: the same intensity of growth hormone releasing activity

ghrelin
Amount having the activity of elevating intracellular Ca++ (GHS-R): nanomolar order | Growth hormone release (pituitary gland cells): activity of releasing growth hormone | Leptin mRNA expression in WAT [4]: increased | Resistin mRNA expression in WAT [4]: reducing | Calorie intake [5, 8]: 25.94 ± 2.562 kcal/day | Cholesterol [5, 8]: 224.8 ± 19.69 mg/dL | Fat pad mass (epididymal) [5, 8]: 1.202 ± 0.175 g | Free fatty acids [5, 8]: 1.636 ± 0.047 meq/l | Glucose (blood) [5, 8]: 160.5 ± 8.977 mg/dL | Insulin [5, 8]: 2.520 ± 0.945 ng/mL | Skeletal muscle (gastrocnemius) [5, 8]: 0.340 ± 0.005 g | Triglycerides [5, 8]: 32.80 ± 7.965 mg/dL | Fat pad mass increase compared with saline-treated mice fed high-fat diet [5, 9]: 125% | Fat pad mass increase compared with saline-treated mice fed standard diet [5, 9]: 49% | Blood glucose concentrations [5, 10]: moderate increase | Body weight gain [5, 10]: increased significantly | Daily energy intake [5, 10]: concomitant increase | Serum cholesterol level [5, 10]: also increased | Serum insulin level [5, 10]: also increased | Skeletal muscle weight [5, 10]: did not show any increase in weight | Feeding after IP ghrelin (GHS-R in the brain): stimulatory effects on the feeding | Growth hormone in the blood (rats): elevates growth hormone in the blood
